Experimental data as given in US11173151B2, “Substituted triazole derivatives and uses thereof” (BAYER AKTIENGESELLSCHAFT, priority 2017, dated 2021).

Legend:
human V1a receptor = biological target: T1, human V1a receptor (Homo sapiens, UniProt P37288); assay: Cellular in vitro assay for determining vasopressin receptor activity, V1a receptor cell line (CHO, aequorin luminescence); assay type: cell-based; conditions: for IC50: CHO cell line transfected with human V1a receptor, [Arg]-vasopressin at EC50 concentration, read-out: IC50 hV1a; for ratio IC50 hV2/hV1a: selectivity ratio IC50 hV2 / IC50 hV1a
T1 construct: expressed in transfected cells; host or cells: CHO K1 (ATCC), also stably transfected with a modified aequorin
T1 sequence (P37288 whole entry): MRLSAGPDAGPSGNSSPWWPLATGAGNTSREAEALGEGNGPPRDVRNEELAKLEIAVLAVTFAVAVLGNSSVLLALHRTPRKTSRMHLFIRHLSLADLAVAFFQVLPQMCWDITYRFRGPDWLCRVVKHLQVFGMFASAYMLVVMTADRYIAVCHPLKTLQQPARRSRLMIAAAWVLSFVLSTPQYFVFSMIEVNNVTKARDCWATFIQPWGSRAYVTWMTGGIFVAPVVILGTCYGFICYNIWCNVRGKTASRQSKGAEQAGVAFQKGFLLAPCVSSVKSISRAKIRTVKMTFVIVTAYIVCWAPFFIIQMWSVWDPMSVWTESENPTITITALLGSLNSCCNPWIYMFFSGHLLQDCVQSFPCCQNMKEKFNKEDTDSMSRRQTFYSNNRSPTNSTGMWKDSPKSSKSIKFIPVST
Outline: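 CHO K1/aequorin cells, coelenterazine 5 μg/ml o/n; cpd 10 min; [Arg]-vasopressin at EC50; luminescence read immediately; IC50.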

human V2 receptor = biological target: T2, human V2 receptor (Homo sapiens, UniProt P30518); assay: Cellular in vitro assay for determining vasopressin receptor activity, V2 receptor cell line (CHO, CRE-luciferase); assay type: cell-based; conditions: CHO cell line transfected with human V2 receptor; [Arg8]-vasopressin at EC50 concentration, 3 hours; read-out: IC50 hV2
T2 construct: expressed in transfected cells; host or cells: CHO K1 (ATCC) expressing firefly luciferase under a CRE-responsive promoter
T2 sequence (P30518 whole entry): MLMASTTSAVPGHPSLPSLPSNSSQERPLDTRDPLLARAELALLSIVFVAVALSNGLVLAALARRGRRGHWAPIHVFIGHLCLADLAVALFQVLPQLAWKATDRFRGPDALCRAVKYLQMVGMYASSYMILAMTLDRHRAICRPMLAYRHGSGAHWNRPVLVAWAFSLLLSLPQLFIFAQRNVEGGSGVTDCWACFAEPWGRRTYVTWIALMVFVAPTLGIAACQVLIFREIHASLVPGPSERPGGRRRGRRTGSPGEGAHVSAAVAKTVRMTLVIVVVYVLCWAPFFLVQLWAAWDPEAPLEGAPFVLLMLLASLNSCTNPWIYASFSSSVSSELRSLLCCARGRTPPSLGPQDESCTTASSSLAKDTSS

Row | Compound | IC50 (human V1a receptor) [nM] | ratio IC50 hV2/hV1a (human V1a receptor) | IC50 (human V2 receptor) [nM]
1 | O=C(Nc1cccnc1-n1cnc(Cn2nc(-c3ccc(Cl)cc3)n(C[C@H](O)C(F)(F)F)c2=O)n1)C1CS(=O)(=O)C1 [Example 58, N-{2-[3-({3-(4-Chlorophenyl)-5-oxo-4-[(2S)-3,3,3-trifluoro-2-hydroxypropyl]-4,5-dihydro-1H-1,2,4-triazol-1-yl}methyl)-1H-1,2,4-triazol-1-yl]pyridin-3-yl}thietane-3-carboxamide 1,1-dioxide] | 19.5 | 58.3 | 1140
2 | O=C(Nc1cccnc1-n1cnc(Cn2nc(-c3ccc(Cl)cc3)n(C[C@H](O)C(F)(F)F)c2=O)n1)OCC(F)(F)F [Example 62, 2,2,2-trifluoroethyl {2-[3-({3-(4-chlorophenyl)-5-oxo-4-[(2S)-3,3,3-trifluoro-2-hydroxypropyl]-4,5-dihydro-1H-1,2,4-triazol-1-yl}methyl)-1H-1,2,4-triazol-1-yl]pyridin-3-yl}carbamate] | 19.5 | 49.1 | 957
3 | O=C(NCC(F)(F)F)Nc1cccnc1-n1cnc(Cn2nc(-c3ccc(Cl)cc3)n(C[C@H](O)C(F)(F)F)c2=O)n1 [Example 63, 1-{2-[3-({3-(4-Chlorophenyl)-5-oxo-4-[(2S)-3,3,3-trifluoro-2-hydroxypropyl]-4,5-dihydro-1H-1,2,4-triazol-1-yl}methyl)-1H-1,2,4-triazol-1-yl]pyridin-3-yl}-3-(2,2,2-trifluoroethyl)urea] | 3.15 | 366.1 | 1150
4 | O=c1n(Cc2ncn(-c3cccnc3N3CCOCC3)n2)nc(-c2ccc(Cl)cc2)n1C[C@H](O)C(F)(F)F [Example 64, 5-(4-Chlorophenyl)-2-({1-[2-(morpholin-4-yl)pyridin-3-yl]-1H-1,2,4-triazol-3-yl}methyl)-4-[(2S)-3,3,3-trifluoro-2-hydroxypropyl]-2,4-dihydro-3H-1,2,4-triazol-3-one] | 16 | 33.4 | 535
5 | CC(C)(N)CNc1ncccc1-n1cnc(Cn2nc(-c3ccc(Cl)cc3)n(C[C@H](O)C(F)(F)F)c2=O)n1 [Example 65, 2-[(1-{2-[(2-Amino-2-methylpropyl)amino]pyridin-3-yl}-1H-1,2,4-triazol-3-yl)methyl]-5-(4-chlorophenyl)-4-[(2S)-3,3,3-trifluoro-2-hydroxypropyl]-2,4-dihydro-3H-1,2,4-triazol-3-one] | 190 | 2.0 | 380
6 | NC(=O)[C@H]1CCCN1c1ncccc1-n1cnc(Cn2nc(-c3ccc(Cl)cc3)n(C[C@H](O)C(F)(F)F)c2=O)n1 [Example 66, 1-{3-[3-({3-(4-Chlorophenyl)-5-oxo-4-[(2S)-3,3,3-trifluoro-2-hydroxypropyl]-4,5-dihydro-1H-1,2,4-triazol-1-yl}methyl)-1H-1,2,4-triazol-1-yl]pyridin-2-yl}-D-prolinamide] | 43.5 | 8.4 | 363
7 | CC(C)(O)CNc1ncccc1-n1cnc(Cn2nc(-c3ccc(Cl)cc3)n(C[C@H](O)C(F)(F)F)c2=O)n1 [Example 67, 5-(4-Chlorophenyl)-2-[(1-{2-[(2-hydroxy-2-methylpropyl)amino]pyridin-3-yl}-1H-1,2,4-triazol-3-yl)methyl]-4-[(2S)-3,3,3-trifluoro-2-hydroxypropyl]-2,4-dihydro-3H-1,2,4-triazol-3-one] | 76.5 | 2.0 | 157
8 | NC(=O)[C@@H]1CCCN1c1ncccc1-n1cnc(Cn2nc(-c3ccc(Cl)cc3)n(C[C@H](O)C(F)(F)F)c2=O)n1 [Example 68, 1-{3-[3-({3-(4-Chlorophenyl)-5-oxo-4-[(2S)-3,3,3-trifluoro-2-hydroxypropyl]-4,5-dihydro-1H-1,2,4-triazol-1-yl}methyl)-1H-1,2,4-triazol-1-yl]pyridin-2-yl}-L-prolinamide] | 63.5 | 6.9 | 437
9 | O=c1n(Cc2ncn(-c3cccnc3NCCC(F)(F)F)n2)nc(-c2ccc(Cl)cc2)n1C[C@H](O)C(F)(F)F [Example 69, 5-(4-Chlorophenyl)-4-[(2S)-3,3,3-trifluoro-2-hydroxypropyl]-2-[(1-{2-[(3,3,3-trifluoropropyl)amino]pyridin-3-yl}-1H-1,2,4-triazol-3-yl)methyl]-2,4-dihydro-3H-1,2,4-triazol-3-one] | 235 | 1.4 | 320

Other lines, results leading:

Row | IC50 (human V1a receptor) [nM] | ratio IC50 hV2/hV1a (human V1a receptor) | IC50 (human V2 receptor) [nM] | Compound
10 | 150 | 4.6 | 690 | O=C1CCC(CNc2ncccc2-n2cnc(Cn3nc(-c4ccc(Cl)cc4)n(C[C@H](O)C(F)(F)F)c3=O)n2)N1 (stereo partly drawn) [Example 70, 5-(4-Chlorophenyl)-2-{[1-(2-{[(5-oxopyrrolidin-2-yl)methyl]amino}pyridin-3-yl)-1H-1,2,4-triazol-3-yl]methyl}-4-[(2S)-3,3,3-trifluoro-2-hydroxypropyl]-2,4-dihydro-3H-1,2,4-triazol-3-one]
11 | 150 | 1.6 | 240 | O=c1n(Cc2ncn(-c3cccnc3NCC(F)(F)F)n2)nc(-c2ccc(Cl)cc2)n1C[C@H](O)C(F)(F)F [Example 71, 5-(4-Chlorophenyl)-2-[(1-{2-[(2,2,2-trifluoroethyl)amino]pyridin-3-yl}-1H-1,2,4-triazol-3-yl)methyl]-4-[(2S)-3,3,3-trifluoro-2-hydroxypropyl]-2,4-dihydro-3H-1,2,4-triazol-3-one]
12 | 2050 | 15.6 | 32000 | O=c1n(Cc2ncn(-c3cccnc3NCC3CS(=O)(=O)C3)n2)nc(-c2ccc(Cl)cc2)n1C[C@H](O)C(F)(F)F [Example 72, 5-(4-Chlorophenyl)-2-{[1-(2-{[(1,1-dioxidothietan-3-yl)methyl]amino}pyridin-3-yl)-1H-1,2,4-triazol-3-yl]methyl}-4-[(2S)-3,3,3-trifluoro-2-hydroxypropyl]-2,4-dihydro-3H-1,2,4-triazol-3-one]
13 | 53 | 13.4 | 710 | CC(=O)Nc1ncccc1-n1cnc(Cn2nc(-c3ccc(Cl)cc3)n(C[C@H](O)C(F)(F)F)c2=O)n1 [Example 73, N-{3-[3-({3-(4-Chlorophenyl)-5-oxo-4-[(2S)-3,3,3-trifluoro-2-hydroxypropyl]-4,5-dihydro-1H-1,2,4-triazol-1-yl}methyl)-1H-1,2,4-triazol-1-yl]pyridin-2-yl}acetamide]
14 | 5.6 | 154.5 | 865 | O=C(CC(F)(F)F)Nc1ncccc1-n1cnc(Cn2nc(-c3ccc(Cl)cc3)n(C[C@H](O)C(F)(F)F)c2=O)n1 [Example 74, N-{3-[3-({3-(4-Chlorophenyl)-5-oxo-4-[(2S)-3,3,3-trifluoro-2-hydroxypropyl]-4,5-dihydro-1H-1,2,4-triazol-1-yl}methyl)-1H-1,2,4-triazol-1-yl]pyridin-2-yl}-3,3,3-trifluoropropanamide]
15 | 6.65 | 270.7 | 1800 | O=C(Nc1ncccc1-n1cnc(Cn2nc(-c3ccc(Cl)cc3)n(C[C@H](O)C(F)(F)F)c2=O)n1)C1CC(F)(F)C1 [Example 80, N-{3-[3-({3-(4-Chlorophenyl)-5-oxo-4-[(2S)-3,3,3-trifluoro-2-hydroxypropyl]-4,5-dihydro-1H-1,2,4-triazol-1-yl}methyl)-1H-1,2,4-triazol-1-yl]pyridin-2-yl}-3,3-difluorocyclobutanecarboxamide]
16 | 2.05 | 658.5 | 1350 | O=C(Nc1ncccc1-n1cnc(Cn2nc(-c3ccc(Cl)cc3)n(C[C@H](O)C(F)(F)F)c2=O)n1)C1(C(F)(F)F)CC1 [Example 81, N-{3-[3-({3-(4-Chlorophenyl)-5-oxo-4-[(2S)-3,3,3-trifluoro-2-hydroxypropyl]-4,5-dihydro-1H-1,2,4-triazol-1-yl}methyl)-1H-1,2,4-triazol-1-yl]pyridin-2-yl}-1-(trifluoromethyl)cyclopropanecarboxamide]
17 | 5.35 | 106.5 | 570 | O=C(Nc1ncccc1-n1cnc(Cn2nc(-c3ccc(Cl)cc3)n(C[C@H](O)C(F)(F)F)c2=O)n1)C1CC1 [Example 83, N-{3-[3-({3-(4-Chlorophenyl)-5-oxo-4-[(2S)-3,3,3-trifluoro-2-hydroxypropyl]-4,5-dihydro-1H-1,2,4-triazol-1-yl}methyl)-1H-1,2,4-triazol-1-yl]pyridin-2-yl}cyclopropanecarboxamide]
18 | 7.35 | 673.5 | 4950 | O=C(Nc1ncccc1-n1cnc(Cn2nc(-c3ccc(Cl)cc3)n(C[C@H](O)C(F)(F)F)c2=O)n1)C1CC1F (stereo partly drawn) [Example 85, N-{3-[3-({3-(4-Chlorophenyl)-5-oxo-4-[(2S)-3,3,3-trifluoro-2-hydrxypropyl]-4,5-dihydro-1H-1,2,4-triazol-1-yl}methyl)-1H-1,2,4-triazol-1-yl]pyridin-2-yl}-2-fluorocyclopropanecarboxamide]
19 | 4.8 | 228.1 | 1100 | O=C(CC1CC1)Nc1ncccc1-n1cnc(Cn2nc(-c3ccc(Cl)cc3)n(C[C@H](O)C(F)(F)F)c2=O)n1 [Example 87, N-{3-[3-({3-(4-Chlorophenyl)-5-oxo-4-[(2S)-3,3,3-trifluoro-2-hydroxypropyl]-4,5-dihydro-1H-1,2,4-triazol-1-yl}methyl)-1H-1,2,4-triazol-1-yl]pyridin-2-yl}-2-cyclopropylacetamide]
